Our source for the biological value values is patent US20200002382A1, “Method for manufacturing oxytocin by liquid-phase polypeptide synthesis” (LANZHOU KAIBO PHARMACEUTICAL CO., LTD., priority 2017, published 2020).

Like-named read-outs stand apart in the source and are kept apart here.

The conditions of test [1]: Photaki synthesis: 1,2-diiodoethane disulfide formation, HBr/AcOH deprotection, purified product; cited from earlier work.
Test [2] is described as follows: Biological value of the pure oxytocin product by the content determination method of the European Pharmacopoeia. The conditions noted are these: pure oxytocin from the liquid-phase synthesis; European Pharmacopoeia (version 8.0) content determination method, European Pharmacopoeia standards as standard materials; water and acetic acid removed. From the text: In order to solve the problems existing in the present oxytocin synthesis technology, the invention provides a liquid-phase synthesis technique of oxytocin characterized by high productivity, low cost, safe environment, mild reaction conditions, high level of purity and biological value and great possibility for industrial production. The pure product of oxytocin provided by the invention has a content of 98.1% and a biological value of 588 IU/mg measured by the content determination method according to the European Pharmacopoeia (version 8.0).
Liquid contained oxytocin with purity above 99% is collected, concentrated at 25° C., desalted by PS polymer, concentrated, and freeze-dried to obtain the pure product of oxytocin (the HPLC image is shown in the attached drawings). The pure product of oxytocin provided by the invention has a content of 98.1% and a biological value of 588 IU/mg measured by the content determination method according to the European Pharmacopoeia, with the European Pharmacopoeia standards used as the standard materials. […]

Take `CC[C@H](C)[C@@H]1NC(=O)[C@H](Cc2ccc(O)cc2)NC(=O)[C@@H](N)CSSC[C@@H](C(=O)N2CCC[C@H]2C(=O)N[C@@H](CC(C)C)C(=O)NCC(N)=O)NC(=O)[C@H](CC(N)=O)NC(=O)[C@H](CCC(N)=O)NC1=O` [oxytocin, Oxytocin]: the biological value in test [1] is on record as 380 IU/mg; in test [2] it was 588 IU/mg.
